The values below come from PubChem BioAssay AID248 (DTP/NCI, 2004).

Each structure is given as a SMILES string. Where “and” joins values, the source holds several entries; their conditions need not be identical. Identical values can stand only once. Inconclusive results and toxic doses are left out.

The subject of this test is L1210 leukemia ip in BDF1 mice, survival T/C. Put plainly: NCI In Vivo Anticancer Drug Screen. Data for tumor model L1210 Leukemia (intraperitoneal) in B6D2F1 (BDF1) mice. To be noted: endpoint: mean survival time, higher = longer survival. In short, it runs like this:
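Survival endpoint. Drug-treated group vs vehicle group, expressed as T divided by C. Tumor passaged by transplantation.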

Where [1] appears, read: dose: 100.0 mg/kg/injection, schedule: Q01DX001 (ip), vehicle: carboxymethylcellulose (CMC).
The mark [2] stands for this setting: dose: 50.0 mg/kg/injection, schedule: Q01DX009 (ip), vehicle: Klucel (hydroxypropylcellulose) (HPC).

`Nc1nc(=S)c2[nH]c(=S)[nH]c2[nH]1`: the T/C is, setting by setting: (dose: 12.0 mg/kg/injection, schedule: Q01DX009 (ip), vehicle: saline) 119 % of control; (dose: 15.0 mg/kg/injection, schedule: Q01DX Z (ip), vehicle: saline) 119 % of control; (dose: 23.0 mg/kg/injection, schedule: Q01DX Z (ip), vehicle: saline) 124 % of control; (dose: 175.0 mg/kg/injection, schedule: Q01DX001 (ip), vehicle: saline) 121 % of control; (dose: 400.0 mg/kg/injection, schedule: Q01DX Z (ip), vehicle: carboxymethylcellulose (CMC)) 98 % of control.

With `COc1ccc(C2CCCCC2OS(C)(=O)=O)cc1` (centres undefined), the T/C runs as follows: under setting [1], 97 % of control; (dose: 200.0 mg/kg/injection, schedule: Q01DX001 (ip), vehicle: carboxymethylcellulose (CMC)) 106 % of control; (dose: 400.0 mg/kg/injection, schedule: Q01DX001 (ip), vehicle: carboxymethylcellulose (CMC)) 95 % of control.

As to `CCC/C=C/CC1CCCCC1`, the T/C reads like this: (dose: 50.0 mg/kg/injection, schedule: Q01DX009 (ip), vehicle: saline) 97 % of control; (dose: 100.0 mg/kg/injection, schedule: Q01DX009 (ip), vehicle: saline) 97 % of control; (dose: 200.0 mg/kg/injection, schedule: Q01DX009 (ip), vehicle: saline) 102 % of control.

Consider `CC(C)(O)c1cccc(F)c1`, for which the T/C was 90 % of control (dose: 50.0 mg/kg/injection, schedule: Q01DX009 (ip), vehicle: saline with Tween-80); 93 % of control (dose: 100.0 mg/kg/injection, schedule: Q01DX009 (ip), vehicle: saline with Tween-80); 121 % of control (dose: 200.0 mg/kg/injection, schedule: Q01DX009 (ip), vehicle: saline with Tween-80).

With `O=[N+]([O-])c1ccc(N/N=C/C(Br)(Br)Br)c([N+](=O)[O-])c1`, the T/C runs as follows: (dose: 50.0 mg/kg/injection, schedule: Q01DX001 (ip), vehicle: carboxymethylcellulose (CMC)) 99 % of control; under setting [1], 94 % of control.

As for `Cc1cc2nc3[nH]c4ccccc4c3nc2cc1C`, the T/C is, setting by setting: (dose: 12.5 mg/kg/injection, schedule: Q01DX015 (ip), vehicle: saline) 98 % of control; (dose: 25.0 mg/kg/injection, schedule: Q01DX015 (ip), vehicle: saline) 87 % of control; (dose: 50.0 mg/kg/injection, schedule: Q01DX001 (ip), vehicle: saline) 91 % of control; (dose: 50.0 mg/kg/injection, schedule: Q01DX015 (ip), vehicle: saline) 115 % of control; (dose: 100.0 mg/kg/injection, schedule: Q01DX001 (ip), vehicle: saline) 94 % of control; (dose: 100.0 mg/kg/injection, schedule: Q01DX015 (ip), vehicle: saline) 120 % of control. Further, the T/C was 91 % of control (dose: 200.0 mg/kg/injection, schedule: Q01DX001 (ip), vehicle: saline); 108 % of control and 90 % of control (dose: 200.0 mg/kg/injection, schedule: Q01DX015 (ip), vehicle: saline); 97 % of control (dose: 400.0 mg/kg/injection, schedule: Q01DX001 (ip), vehicle: saline); 104 % of control (dose: 400.0 mg/kg/injection, schedule: Q01DX015 (ip), vehicle: saline); 103 % of control (dose: 800.0 mg/kg/injection, schedule: Q01DX001 (ip), vehicle: saline); 87 % of control (dose: 800.0 mg/kg/injection, schedule: Q01DX015 (ip), vehicle: saline).

In the case of `C[CH2][Pb]([CH2]C)([CH2]C)[O][As](=O)(O)c1ccc(N)cc1`, the T/C was 98 % of control (dose: 0.75 mg/kg/injection, schedule: Q01DX009 (ip), vehicle: Klucel (hydroxypropylcellulose) (HPC)); 102 % of control (dose: 1.5 mg/kg/injection, schedule: Q01DX009 (ip), vehicle: Klucel (hydroxypropylcellulose) (HPC)); 96 % of control (dose: 1.5 mg/kg/injection, schedule: Q04DX003 (ip), vehicle: Klucel (hydroxypropylcellulose) (HPC)); 96 % of control and 102 % of control (dose: 3.0 mg/kg/injection, schedule: Q01DX009 (ip), vehicle: Klucel (hydroxypropylcellulose) (HPC)); 100 % of control (dose: 3.0 mg/kg/injection, schedule: Q04DX003 (ip), vehicle: Klucel (hydroxypropylcellulose) (HPC)); 98 % of control (dose: 6.0 mg/kg/injection, schedule: Q04DX003 (ip), vehicle: Klucel (hydroxypropylcellulose) (HPC)).

With `CC(=O)NN(c1ccccc1)c1ccccc1`, the T/C was 98 % of control under setting [2]; 104 % of control (dose: 100.0 mg/kg/injection, schedule: Q01DX009 (ip), vehicle: Klucel (hydroxypropylcellulose) (HPC)); 93 % of control (dose: 100.0 mg/kg/injection, schedule: Q04DX003 (ip), vehicle: Klucel (hydroxypropylcellulose) (HPC)); 96 % of control (dose: 200.0 mg/kg/injection, schedule: Q01DX009 (ip), vehicle: Klucel (hydroxypropylcellulose) (HPC)); 86 % of control (dose: 200.0 mg/kg/injection, schedule: Q04DX003 (ip), vehicle: Klucel (hydroxypropylcellulose) (HPC)); 91 % of control (dose: 400.0 mg/kg/injection, schedule: Q04DX003 (ip), vehicle: Klucel (hydroxypropylcellulose) (HPC)).

In the case of `CCCC[n+]1ccc(C#N)cc1`, the T/C is 103 % of control (dose: 75.0 mg/kg/injection, schedule: Q01DX001 (ip), vehicle: saline) and 95 % of control (dose: 150.0 mg/kg/injection, schedule: Q01DX001 (ip), vehicle: saline).

As to `O=C(Nc1ccc(Cl)c(Cl)c1)OCc1cc[n+]([O-])cc1`, the T/C is, setting by setting: (dose: 100.0 mg/kg/injection, schedule: Q04DX002 (ip), vehicle: Klucel (hydroxypropylcellulose) (HPC)) 103 % of control; (dose: 200.0 mg/kg/injection, schedule: Q04DX002 (ip), vehicle: Klucel (hydroxypropylcellulose) (HPC)) 98 % of control; (dose: 400.0 mg/kg/injection, schedule: Q04DX002 (ip), vehicle: Klucel (hydroxypropylcellulose) (HPC)) 106 % of control.

In the case of `Nc1ncnc2c1ncn2C1OC(C2CC2)C(O)C1O` (centres undefined), the T/C was 111 % of control (dose: 25.0 mg/kg/injection, schedule: Q01DX005 (ip), vehicle: saline); 104 % of control (dose: 50.0 mg/kg/injection, schedule: Q01DX005 (ip), vehicle: saline); 98 % of control (dose: 100.0 mg/kg/injection, schedule: Q01DX005 (ip), vehicle: saline); 94 % of control (dose: 200.0 mg/kg/injection, schedule: Q01DX005 (ip), vehicle: saline).

As to `CC[C@H](CC[C@@H](C)[C@H]1CC[C@H]2[C@@H]3CC=C4C[C@@H](OC(=O)CN5CCNCC5)CC[C@]4(C)[C@H]3CC[C@]12C)C(C)C`, the T/C reads like this: (dose: 100.0 mg/kg/injection, schedule: Q01DX001 (ip), vehicle: water) 98 % of control; (dose: 100.0 mg/kg/injection, schedule: Q01DX009 (ip), vehicle: water) 105 % of control; (dose: 100.0 mg/kg/injection, schedule: Q04DX003 (ip), vehicle: water) 100 % of control; (dose: 200.0 mg/kg/injection, schedule: Q01DX001 (ip), vehicle: water) 98 % of control; (dose: 200.0 mg/kg/injection, schedule: Q01DX009 (ip), vehicle: water) 89 % of control; (dose: 200.0 mg/kg/injection, schedule: Q04DX003 (ip), vehicle: water) 100 % of control. Also, the T/C is, setting by setting: (dose: 400.0 mg/kg/injection, schedule: Q01DX001 (ip), vehicle: water) 91 % of control; (dose: 400.0 mg/kg/injection, schedule: Q04DX003 (ip), vehicle: water) 98 % of control.

On to `OCCN1CCN(C(=S)[S-])CC1.OCCN1CCN(C(=S)[S-])CC1.[Zn]`, for which the T/C runs as follows: (dose: 10.0 mg/kg/injection, schedule: Q04DX003 (ip), vehicle: saline) 93 % of control; (dose: 20.0 mg/kg/injection, schedule: Q04DX003 (ip), vehicle: saline) 90 % of control.

Consider `O=C(Nc1ccc(NC(=O)Nc2ccc(C3=NCCN3)cc2)cc1)Nc1ccc(C2=NCCN2)cc1`, for which the T/C is 100 % of control and 115 % of control (dose: 110.0 mg/kg/injection, schedule: Q01DX Z (ip), vehicle: carboxymethylcellulose (CMC)); 98 % of control (dose: 240.0 mg/kg/injection, schedule: Q01DX Z (oral), vehicle: carboxymethylcellulose (CMC)); 160 % of control (dose: 303.0 mg/kg/injection, schedule: Q01DX Z (ip), vehicle: carboxymethylcellulose (CMC)); 98 % of control (dose: 375.0 mg/kg/injection, schedule: Q01DX Z (ip), vehicle: carboxymethylcellulose (CMC)); 93 % of control (dose: 455.0 mg/kg/injection, schedule: Q01DX Z (ip), vehicle: carboxymethylcellulose (CMC)); 104 % of control (dose: 480.0 mg/kg/injection, schedule: Q01DX Z (oral), vehicle: carboxymethylcellulose (CMC)). In addition, the T/C (dose: 960.0 mg/kg/injection, schedule: Q01DX Z (oral), vehicle: carboxymethylcellulose (CMC)) is 107 % of control.

Consider `O=C1CCC(=O)N1c1ccc(Cl)cc1`, for which the T/C by setting is: (dose: 12.5 mg/kg/injection, schedule: Q01DX009 (ip), vehicle: Klucel (hydroxypropylcellulose) (HPC)) 107 % of control; (dose: 25.0 mg/kg/injection, schedule: Q01DX009 (ip), vehicle: Klucel (hydroxypropylcellulose) (HPC)) 98 % of control; under setting [2], 101 % of control.
